Tested on: C57BL/6 mice
Experiment: animal or person
Assay type: in vivo
Details: Mus musculus, sc, 0.5 h, s.c. administration, 30 min, 55° C. water, read-out: ED50 (mg/kg) at 30 min on C57BL/6 mice in Warm-water Tail-flick Test

For c1ccc(CCC2(C3CCCO3)CCN(Cc3cnccn3)C2)cc1 (stereo not shown) [Compound 238, 2-((3-phenethyl-3-(tetrahydrofuran-2-yl)pyrrolidin-1-yl)methyl)pyrazine], the ED50 was greater than 10 mg/kg.

CC(=O)Nc1ccc(CN2CCC(CCc3ccccc3)(COCc3ccccc3)C2)cc1 (stereo not shown) [Compound 239, N-(4-((3-(benzyloxymethyl)-3-phenethylpyrrolidin-1-yl)methyl)phenyl)acetamide] gave an ED50 greater than 10 mg/kg.

With Cn1cc(CN2CCC(CCc3ccccc3)(COCc3ccccc3)C2)cn1 (stereo not shown) [Compound 240, 4-((3-(benzyloxymethyl)-3-phenethylpyrrolidin-1-yl)methyl)-1-methyl-1H-pyrazole] the ED50 was greater than 10 mg/kg.

Fc1cncc(CN2CCC(CCc3ccccc3)(C3CCCO3)C2)c1 (stereo not shown) [Compound 241, 3-fluoro-5-((3-phenethyl-3-(tetrahydrofuran-2-yl)pyrrolidin-1-yl)methyl)pyridine] showed an ED50 greater than 10 mg/kg.

COc1cncc(CN2CCC(CCc3ccccc3)(C3CCCO3)C2)c1 (stereo not shown) [Compound 242, 3-methoxy-5-((3-phenethyl-3-(tetrahydrofuran-2-yl)pyrrolidin-1-yl)methyl)pyridine] was tested, and the ED50 was greater than 10 mg/kg.

With Clc1cncc(CN2CCC(CCc3ccccc3)(C3CCCO3)C2)c1 (stereo not shown) [Compound 243, 3-chloro-5-((3-phenethyl-3-(tetrahydrofuran-2-yl)pyrrolidin-1-yl)methyl)pyridine] the ED50 was greater than 10 mg/kg.

CCOCC1(CCc2ccccc2)CCN(Cc2cccnc2)CC1 [Compound 244, 3-((4-(ethoxymethyl)-4-phenethylpiperidin-1-yl)methyl)pyridine] gave an ED50 of less than 10 mg/kg.

For CCOCC1(CCc2ccccc2)CCN(Cc2cnn(C)c2)CC1 [Compound 245, 4-(ethoxymethyl)-1-((1-methyl-1H-pyrazol-4-yl)methyl)-4-phenethylpiperidine], the ED50 was less than 10 mg/kg.

CCOCC1(CCc2ccccc2)CCN(Cc2ccnn2C)CC1 [Compound 246, 4-(ethoxymethyl)-1-((1-methyl-1H-pyrazol-5-yl)methyl)-4-phenethylpiperidine] was tested, and the ED50 was greater than 10 mg/kg.

CCOCC1(CCc2cccs2)CCN(Cc2cccnc2)CC1 [Compound 247, 3-((4-(ethoxymethyl)-4-(2-(thiophen-2-yl)ethyl)piperidin-1-yl)methyl)pyridine] gave an ED50 of less than 10 mg/kg.

c1ccc(CCC2(C3CCCO3)CCN(CCc3cccnc3)C2)cc1 (stereo not shown) [Compound 248, 3-(2-(3-phenethyl-3-(tetrahydrofuran-2-yl)pyrrolidin-1-yl)ethyl)pyridine] showed an ED50 greater than 10 mg/kg.

CCOCC1(CCc2ccccc2)CCN(Cc2cccnc2)C1 (stereo not shown) [Compound 249, 3-((3-(ethoxymethyl)-3-phenethylpyrrolidin-1-yl)methyl)pyridine] gave an ED50 of less than 10 mg/kg.

CCOCC1(CCc2ccsc2)CCN(Cc2cnn(C)c2)C1 (stereo not drawn) [Compound 250, 4-((3-(ethoxymethyl)-3-(2-(thiophen-3-yl)ethyl)pyrrolidin-l-yl)methyl)-1-methyl-1H-pyrazole] gave an ED50 of less than 10 mg/kg.

In the case of CCOCC1(CCc2cccs2)CCN(Cc2cccnc2)C1 (stereo not shown) [Compound 251, 3-((3-(ethoxymethyl)-3-(2-(thiophen-2-yl)ethyl)pyrrolidin-1-yl)methyl)pyridine], the ED50 is reported as less than 10 mg/kg.

With CCOCC1(CCc2ccsc2)CCN(Cc2cccnc2)C1 (stereo not shown) [Compound 252] the ED50 was less than 10 mg/kg.

Molecule CCOCC1(CCc2ccsc2)CCN(Cc2cnc(C)s2)C1 (stereo not drawn) [Compound 253, 5-((3-(ethoxymethyl)-3-(2-(thiophen-3-yl)ethyl)pyrrolidin-l-yl)methyl)-2-methylthiazole] has an ED50 greater than 10 mg/kg.

For CCOCC1(CCc2cccs2)CCN(Cc2cnc(C)s2)CC1 [Compound 254], the ED50 was greater than 10 mg/kg.

CCOCC1(CCc2ccsc2)CCN(Cc2cnc(C)s2)CC1 [Compound 255, 5-((4-(ethoxymethyl)-4-(2-(thiophen-3-yl)ethyl)piperidin-1-yl)methyl)-2-methylthiazole] gave an ED50 greater than 10 mg/kg.

With CCOCC1(CCc2cccs2)CCN(Cc2cnn(CC)c2)CC1 [Compound 256, 4-(ethoxymethyl)-1-((l-ethyl-1H-pyrazol-4-yl)methyl)-4-(2-(thiophen-2-yl)ethyl)piperidine] the ED50 was less than 10 mg/kg.
